Test [1] has as its target T1, Runt-related transcription factor 1/Core-binding factor subunit beta (Homo sapiens, UniProt Q01196+Q13951). Description: inhibitors of RUNX1 Runt–CBFb-SMMHC binding, biochemical, TR-FRET (AID 1438). The test is classed as protein assay. Background: In TR-FRET formats the signal depends on donor and acceptor labels being close together.
Test [2] addresses T1, Runt-related transcription factor 1/Core-binding factor subunit beta. Description: inhibitors of RUNX1 Runt–CBFb-SMMHC binding, primary screen, biochemical, FRET, Cerulean-Runt, Venus-CBFb-SMMHC, uHTS (AID 1434).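 Note: partner is the CBFb-SMMHC leukemia fusion protein rather than wild-type CBFb.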 In kind it is protein assay.
In test [3] the target is T2, Sphingosine 1-phosphate receptor 4 (Homo sapiens, UniProt O95977).
T2 sequence (O95977 whole entry): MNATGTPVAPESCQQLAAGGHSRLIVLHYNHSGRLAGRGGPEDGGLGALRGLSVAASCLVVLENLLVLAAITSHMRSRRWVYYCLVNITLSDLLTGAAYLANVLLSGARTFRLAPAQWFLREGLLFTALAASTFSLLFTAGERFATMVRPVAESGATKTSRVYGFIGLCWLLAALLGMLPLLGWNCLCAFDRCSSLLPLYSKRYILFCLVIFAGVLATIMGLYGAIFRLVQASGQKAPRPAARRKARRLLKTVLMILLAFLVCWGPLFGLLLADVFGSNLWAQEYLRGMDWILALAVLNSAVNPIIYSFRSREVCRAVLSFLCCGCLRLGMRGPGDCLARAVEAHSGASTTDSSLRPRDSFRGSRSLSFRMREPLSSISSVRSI
The test can be described thus: Fluorescence dose response cell-based high throughput screening assay for agonists of the Sphingosine 1-Phosphate Receptor 4 (S1P4). [Related pubchem assays: 1509 (Primary screen.), 1523 (Confirmation screen in triplicates.)]. In kind it is functional.

The target of test [4] is Sphingosine 1-phosphate receptor 1 (Homo sapiens, UniProt P21453). The test can be described thus: Fluorescence-based counterscreen assay for S1P4 agonists: Cell-based dose response high throughput screening assay to identify agonists of the Sphingosine 1-Phosphate Receptor 1 (S1P1). [Related pubchem assays (depositor defined):AID1509, AID1523, AID1801, AID463107, AID463118, AID463119, AID463122, AID463123, AID463129, AID463225, AID504400, AID504460]. The test is classed as functional.

In test [5] the target is T3, Mannose-6-phosphate isomerase (Homo sapiens, UniProt P34949).
T3 sequence (P34949 whole entry): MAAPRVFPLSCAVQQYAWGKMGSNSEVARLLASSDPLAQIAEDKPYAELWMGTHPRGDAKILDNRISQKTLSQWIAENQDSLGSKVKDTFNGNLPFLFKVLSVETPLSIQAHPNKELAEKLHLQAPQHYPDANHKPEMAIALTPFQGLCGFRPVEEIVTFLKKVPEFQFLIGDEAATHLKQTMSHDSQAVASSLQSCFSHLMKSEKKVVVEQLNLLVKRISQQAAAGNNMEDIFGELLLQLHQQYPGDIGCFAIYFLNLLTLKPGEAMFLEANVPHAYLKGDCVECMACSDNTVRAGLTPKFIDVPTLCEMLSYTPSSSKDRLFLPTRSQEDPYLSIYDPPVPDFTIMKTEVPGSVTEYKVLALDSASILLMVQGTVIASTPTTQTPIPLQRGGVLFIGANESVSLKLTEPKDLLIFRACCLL
The test can be described thus: PMI enzyme inhibitors, confirmation, biochemical, fluorescence intensity (AID 1535).

The target of a further test is Phosphomannomutase 2 (Homo sapiens, UniProt O15305). The test can be described thus: Counter screen SAR assay for PMM2 inhibitors via a fluorescence intensity assay. [Related pubchem assays (depositor defined):AID1545, AID1574].
The target in another test is Troponin, cardiac muscle (Homo sapiens, UniProt P19429+P45379+P63316). The test can be described thus: Fluorescence-based biochemical high throughput dose response assay for activators of the calcium sensitivity of cardiac Regulated Thin Filaments (RTF). [Related pubchem assays (depositor defined):AID493008, AID493018, AID504382, AID504383]. The test is classed as protein-complex assay.

In test [6] the target is T4, Corticotropin-releasing factor receptor 2/Corticotropin-releasing factor-binding protein (Homo sapiens, UniProt P24387+Q13324).
T4 sequence (Q13324 whole entry): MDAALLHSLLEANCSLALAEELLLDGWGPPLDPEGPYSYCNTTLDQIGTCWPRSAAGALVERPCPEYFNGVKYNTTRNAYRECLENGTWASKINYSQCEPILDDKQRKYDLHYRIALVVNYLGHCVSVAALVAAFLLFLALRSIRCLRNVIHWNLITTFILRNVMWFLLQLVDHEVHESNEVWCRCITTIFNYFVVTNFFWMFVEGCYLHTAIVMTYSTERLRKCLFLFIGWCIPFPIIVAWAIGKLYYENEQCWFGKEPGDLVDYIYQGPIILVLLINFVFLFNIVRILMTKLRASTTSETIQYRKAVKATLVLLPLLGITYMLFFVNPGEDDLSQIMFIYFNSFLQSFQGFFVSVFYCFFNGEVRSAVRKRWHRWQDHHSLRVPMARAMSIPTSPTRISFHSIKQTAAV
T4 sequence (P24387 whole entry): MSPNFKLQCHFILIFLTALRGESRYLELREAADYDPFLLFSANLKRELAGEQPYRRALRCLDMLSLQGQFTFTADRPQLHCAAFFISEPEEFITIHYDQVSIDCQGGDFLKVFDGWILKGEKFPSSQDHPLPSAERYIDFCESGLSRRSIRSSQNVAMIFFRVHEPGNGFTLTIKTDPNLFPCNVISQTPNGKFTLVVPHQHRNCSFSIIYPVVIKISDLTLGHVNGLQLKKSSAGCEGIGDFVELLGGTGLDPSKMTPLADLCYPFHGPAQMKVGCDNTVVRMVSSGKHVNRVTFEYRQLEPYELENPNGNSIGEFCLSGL
The test can be described thus: activators of CRF receptor 2 with binding protein – uHTS hits, confirmation (AID 602473). In kind it is functional. Conditions: read-out: EC50_Mean.

Active and inactive are the calls of the source.

As a reminder, the IC50 is the concentration at which inhibition is half-maximal. In the case of `CCNc1sc(C(=O)c2cccs2)c(N)c1-c1nc2ccccc2s1`, the values for the IC50 in test [1] and in test [2] were 63.2 µM (inactive) and > 100 µM (inactive), respectively.

For `CCCN(CCC)c1ccc(/C=C/c2ccc3cc(OCC)ccc3n2)cc1`, the EC50 is > 49.8 µM (not active) in test [3] and > 5.53 µM (inactive) in test [4].

On to `Clc1nss/c1=N\c1ccc2ncccc2c1`, for which the figures for the IC50 (in test [5]; at Phosphomannomutase 2) were 23.6 µM (active) and > 100 µM (inactive), respectively.

For `Cc1ccc[n+](-c2[n-]c(=O)sc2C=O)c1`, the EC50 at Troponin, cardiac muscle is 2.18 µM (active); in test [6] it was 11.5 µM (active).

For the origin of these results see ChEMBL document CHEMBL1201862, “PubChem BioAssay data set” (2004).
